Tested on: total hip mineralisation in subjects treated for OP
[1] = response by genotype TT vs TG/GG at rs2297480, annualised change in total hip densitometry, 95% CI in brackets

Description: Genetic samples were obtained from subjects enrolled in an ongoing clinical programme for treatment of OP through the use of regular intravenous Pamidronate (30 mg three monthly).
By such methodology, 53 subjects (each with two densitometric estimates taken in the first 24 month of Pamidronate therapy) were respectively assigned drug response phenotypes according to their display of ongoing demineralisation (‘response failure’) or stable or improving mineralising (‘response success’). This was achieved by comparison of derived annualised rates of change in projected densitometric estimates of total hip mineralisation.
DNA was extracted from blood samples using standard organic phase methods and PCR amplification and DNA sequencing was carried out using standard protocols (dye-terminator sequencing using an ABI3100 automated DNA sequencer).

NCCC(O)(P(=O)(O)O)P(=O)(O)O [Pamidronate]
number of subjects with 'response failure' (ongoing demineralisation) (TT genotype at rs2297480, intravenous Pamidronate 30 mg three monthly, first 24 months, 53 subjects): 2
odds ratio for the >-2.7 cutoff [1]: 12.0833 (95% CI: 2.2961 to 63.5874)
odds ratio for the pos/neg cutoff [1]: 3.1818 (95% CI: 1.0192 to 9.9327)

Source: US20100168067A1, “BIOMARKERS FOR BISPHOSPHONATE-RESPONSIVE BONE DISORDERS” (UCL BUSINESS PLC, priority 2006, published 2010)
